Assay results from the supplement of paper PMC10627819.

Tests used:
B. subtilis 168 [1] = assay: Bliss interaction score (quartile over a dose matrix) (fitness difference); higher = more antagonism (negative = synergy)
How it was run: (§1)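 Quartiles of the Bliss score were taken over technical, biological and donor/recipient replicates. That score is observed fitness minus the product of the single-drug fitness values, which were inferred from combination data. Fitness itself is OD595 at entry into stationary phase divided by the plate's robust no-drug mean, with a cap at 1.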

S. aureus Newman [2] = assay: as above
How it was run: as §1

S. aureus DSM 20231 = assay: as above
How it was run: as §1

B. subtilis 168 [3] = assay: fitness (endpoint OD595 vs no drug) (fraction); higher = more growth
How it was run: (§2)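 Bacterial fitness was scored as optical density at the stationary-phase transition relative to the robust mean of no-drug control wells. Scores are capped at 1. The growth data were OD595 readings every 30 min for 14 h at 37 °C, background-subtracted against the first reading, from 384-well plates inoculated at OD595 0.01 in TSB, LB Lennox or CY.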

S. pneumoniae D39V [4] = assay: as above
How it was run: as §2

S. aureus Newman [5] = assay: as above
How it was run: as §2

S. pneumoniae D39V [6] = assay: Bliss interaction score (quartile over a dose matrix) (fitness difference); higher = more antagonism (negative = synergy)
How it was run: as §1
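For Bliss interaction score (quartile over a dose matrix) in this document: first quartile when negative (synergy) and third quartile when positive (antagonism).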

Question: What does the source list for `O=C(O)c1cn(C2CC2)c2cc(N3CCNCC3)c(F)cc2c1=O` [Ciprofloxacin] + Cc1onc(-c2ccccc2)c1C(=O)N[C@@H]1C(=O)N2[C@@H]1SC(C)(C)[C@@H]2C(=O)O [Oxacillin]?
Answer: Bliss interaction score (B. subtilis 168 [1]): -0.0871; Bliss interaction score (S. aureus Newman [2]): 0.0816; Bliss interaction score (S. aureus DSM 20231): 0.0341; fitness (B. subtilis 168 [3]; first compound 0.0098 µg/mL, partner 0.002 µg/mL): 0.894; fitness (B. subtilis 168 [3]; first compound 0.0098 µg/mL, partner 0.004 µg/mL): 0.866; fitness (B. subtilis 168 [3]; first compound 0.0098 µg/mL, partner 0.0078 µg/mL, one replicate): 0.976; fitness (B. subtilis 168 [3]; first compound 0.0098 µg/mL, partner 0.008 µg/mL): 0.863; fitness (B. subtilis 168 [3]; first compound 0.0098 µg/mL, partner 0.0155 µg/mL, one replicate): 0.905; fitness (B. subtilis 168 [3]; first compound 0.0098 µg/mL, partner 0.031 µg/mL, one replicate): 0.965; fitness (B. subtilis 168 [3]; first compound 0.0098 µg/mL, partner 0.075 µg/mL, one replicate): 0.375; fitness (B. subtilis 168 [3]; first compound 0.0195 µg/mL, partner 0.002 µg/mL): 0.748; fitness (B. subtilis 168 [3]; first compound 0.0195 µg/mL, partner 0.004 µg/mL): 0.693; fitness (B. subtilis 168 [3]; first compound 0.0195 µg/mL, partner 0.0078 µg/mL, one replicate): 0.814; fitness (B. subtilis 168 [3]; first compound 0.0195 µg/mL, partner 0.008 µg/mL): 0.61; fitness (B. subtilis 168 [3]; first compound 0.0195 µg/mL, partner 0.0155 µg/mL, one replicate): 0.779; fitness (B. subtilis 168 [3]; first compound 0.0195 µg/mL, partner 0.031 µg/mL, one replicate): 0.729; fitness (B. subtilis 168 [3]; first compound 0.0195 µg/mL, partner 0.075 µg/mL, one replicate): 0.0252; fitness (B. subtilis 168 [3]; first compound 0.0195 µg/mL, partner 0.15 µg/mL, one replicate): 0.0469; fitness (B. subtilis 168 [3]; first compound 0.0195 µg/mL, partner 0.3 µg/mL, one replicate): 0.0517; fitness (B. subtilis 168 [3]; first compound 0.039 µg/mL, partner 0.002 µg/mL): 0.0478; fitness (B. subtilis 168 [3]; first compound 0.039 µg/mL, partner 0.004 µg/mL): 0.0457; fitness (B. subtilis 168 [3]; first compound 0.039 µg/mL, partner 0.0078 µg/mL, one replicate): 0.136; fitness (B. subtilis 168 [3]; first compound 0.039 µg/mL, partner 0.008 µg/mL): 0.054; fitness (B. subtilis 168 [3]; first compound 0.039 µg/mL, partner 0.0155 µg/mL, one replicate): 0.191; fitness (B. subtilis 168 [3]; first compound 0.039 µg/mL, partner 0.031 µg/mL, one replicate): 0.0978; fitness (B. subtilis 168 [3]; first compound 0.039 µg/mL, partner 0.075 µg/mL, one replicate): 0.0437; fitness (B. subtilis 168 [3]; first compound 0.039 µg/mL, partner 0.15 µg/mL, one replicate): 0.0478; fitness (B. subtilis 168 [3]; first compound 0.039 µg/mL, partner 0.3 µg/mL, one replicate): 0.0488; fitness (S. pneumoniae D39V [4]; first compound 0.125 µg/mL, partner 0.005 µg/mL): 0.987; fitness (S. pneumoniae D39V [4]; first compound 0.125 µg/mL, partner 0.01 µg/mL): 0.969; fitness (S. pneumoniae D39V [4]; first compound 0.125 µg/mL, partner 0.02 µg/mL): 0.915; fitness (S. pneumoniae D39V [4]; first compound 0.125 µg/mL, partner 0.04 µg/mL): 0.535; fitness (S. pneumoniae D39V [4]; first compound 0.25 µg/mL, partner 0.005 µg/mL, one replicate): 0.989; fitness (S. pneumoniae D39V [4]; first compound 0.25 µg/mL, partner 0.01 µg/mL): 0.934; fitness (S. pneumoniae D39V [4]; first compound 0.25 µg/mL, partner 0.02 µg/mL): 0.844; fitness (S. pneumoniae D39V [4]; first compound 0.25 µg/mL, partner 0.04 µg/mL): 0.424; fitness (S. pneumoniae D39V [4]; first compound 0.5 µg/mL, partner 0.005 µg/mL): 0.815; fitness (S. pneumoniae D39V [4]; first compound 0.5 µg/mL, partner 0.04 µg/mL): 0.354; fitness (S. aureus Newman [5]; first compound 0.0375 µg/mL, partner 0.0156 µg/mL): 0.622; fitness (S. aureus Newman [5]; first compound 0.0375 µg/mL, partner 0.0312 µg/mL): 0.612; fitness (S. aureus Newman [5]; first compound 0.0375 µg/mL, partner 0.0625 µg/mL): 0.573; fitness (S. aureus Newman [5]; first compound 0.075 µg/mL, partner 0.0156 µg/mL): 0.635; fitness (S. aureus Newman [5]; first compound 0.075 µg/mL, partner 0.0312 µg/mL): 0.618; fitness (S. aureus Newman [5]; first compound 0.075 µg/mL, partner 0.0625 µg/mL): 0.494; fitness (S. aureus Newman [5]; first compound 0.15 µg/mL, partner 0.0156 µg/mL): 0.0645; fitness (S. aureus Newman [5]; first compound 0.15 µg/mL, partner 0.0312 µg/mL): 0.0732; fitness (S. aureus Newman [5]; first compound 0.15 µg/mL, partner 0.0625 µg/mL): 0.0443

Question: Which results are given for `CO/N=C(\C(=O)N[C@@H]1C(=O)N2C(C(=O)O)=C(COC(N)=O)CS[C@H]12)c1ccco1` [Cefuroxime] + C/C(=C\C(=O)OCCCCCCCCC(=O)O)C[C@@H]1OC[C@H](C[C@@H]2O[C@H]2[C@@H](C)[C@H](C)O)[C@@H](O)[C@H]1O [Pseudomonic acid]?
Answer: Bliss interaction score (B. subtilis 168 [1]): 0.074; Bliss interaction score (S. pneumoniae D39V [6]): 0.0629

Question: For `O=C(O)c1cn(C2CC2)c2cc(N3CCNCC3)c(F)cc2c1=O` [Ciprofloxacin] + Cc1c(Cl)cccc1Nc1ccccc1C(=O)O [Tolfenamic], which Bliss interaction score (S. aureus DSM 20231) is on record?
Answer: -0.188

Question: How did the Bliss interaction score (S. aureus DSM 20231) turn out when `COCCOC(=O)C1=C(C)NC(C)=C(C(=O)OC/C=C/c2ccccc2)C1c1cccc([N+](=O)[O-])c1` (stereo unspecified) [Cilnidipine] + CC(=O)NC[C@H]1CN(c2ccc(N3CCOCC3)c(F)c2)C(=O)O1 [Linezolid] was run?
Answer: -0.254

Question: `COCCOC(=O)C1=C(C)NC(C)=C(C(=O)OC/C=C/c2ccccc2)C1c1cccc([N+](=O)[O-])c1` (stereo unspecified) [Cilnidipine] + CN(C)[C@@H]1C(O)=C(C(N)=O)C(=O)[C@@]2(O)C(O)=C3C(=O)c4c(O)ccc(Cl)c4[C@@](C)(O)[C@H]3C[C@@H]12 [Clortetracycline] was tested. Which Bliss interaction score (S. aureus DSM 20231) did it give?
Answer: -0.323

Question: Which Bliss interaction score (S. aureus DSM 20231) does the source give for `CC(C)c1c(C(=O)Nc2ccccc2)c(-c2ccccc2)c(-c2ccc(F)cc2)n1CC[C@@H](O)C[C@@H](O)CC(=O)O` [Atorvastatin] + CC1(C)S[C@@H]2[C@H](NC(=O)Cc3ccccc3)C(=O)N2[C@H]1C(=O)O [PenicillinG] here?
Answer: 0.402

Question: How did the Bliss interaction score (S. aureus DSM 20231) turn out when `CN(C)[C@@H]1C(O)=C(C(N)=O)C(=O)[C@@]2(O)C(O)=C3C(=O)c4c(O)ccc(Cl)c4[C@@](C)(O)[C@H]3C[C@@H]12` [Clortetracycline] + Cc1c(C)c2c(c(C)c1O)CCC(C)(COc1ccc(CC3SC(=O)NC3=O)cc1)O2 [Troglitazone] was run?
Answer: -0.137

Question: How did the Bliss interaction score (S. aureus DSM 20231) turn out when `COCCOC(=O)C1=C(C)NC(C)=C(C(=O)OC/C=C/c2ccccc2)C1c1cccc([N+](=O)[O-])c1` (stereo unspecified) [Cilnidipine] + COc1cc(Cc2cnc(N)nc2N)cc(OC)c1OC [Trimethoprim] was run?
Answer: -0.299

Question: Which Bliss interaction score (S. aureus DSM 20231) does the source give for `CO/N=C(\C(=O)N[C@@H]1C(=O)N2C(C(=O)O)=C(COC(C)=O)CS[C@H]12)c1csc(N)n1` [Cefotaxime] + Nc1ccc(O)c(C(=O)O)c1 [Mesalamine] here?
Answer: 0.16

Question: How did the Bliss interaction score (S. aureus DSM 20231) turn out when `CC(=O)Oc1cccc2c1C(=O)c1c(OC(C)=O)cc(C(=O)O)cc1C2=O` [Diacerein] + CC(=O)NC[C@H]1CN(c2ccc(N3CCOCC3)c(F)c2)C(=O)O1 [Linezolid] was run?
Answer: -0.29

Question: How did the Bliss interaction score (S. aureus DSM 20231) turn out when `CN(C)[C@@H]1C(O)=C(C(N)=O)C(=O)[C@@]2(O)C(O)=C3C(=O)c4c(O)ccc(Cl)c4[C@@](C)(O)[C@H]3C[C@@H]12` [Clortetracycline] + CC[C@H](c1ccc(O)cc1)[C@@H](CC)c1ccc(O)cc1 [Hexestrol] was run?
Answer: -0.204

Question: With `CN(C)[C@@H]1C(O)=C(C(N)=O)C(=O)[C@@]2(O)C(O)=C3C(=O)c4c(O)ccc(Cl)c4[C@@](C)(O)[C@H]3C[C@@H]12` [Clortetracycline] + COc1ccc(CCN(C)CCCC(C#N)(c2ccc(OC)c(OC)c2)C(C)C)cc1OC [Verapamil] as the compound, how does the Bliss interaction score (S. aureus DSM 20231) read?
Answer: 0.243

Question: With `Cn1c(=O)c2c(ncn2C)n(C)c1=O` [Caffeine] + CC[C@H]1OC(=O)[C@H](C)[C@@H](O[C@H]2C[C@@](C)(OC)[C@@H](O)[C@H](C)O2)[C@H](C)[C@@H](O[C@@H]2O[C@H](C)C[C@H](N(C)C)[C@H]2O)[C@](C)(OC)C[C@@H](C)C(=O)[C@H](C)[C@@H](O)[C@]1(C)O [Clarithromycin] as the compound, how does the Bliss interaction score (S. aureus DSM 20231) read?
Answer: -0.357

Question: With `CO/N=C(\C(=O)N[C@@H]1C(=O)N2C(C(=O)O)=C(COC(N)=O)CS[C@H]12)c1ccco1` [Cefuroxime] + O=C(O)[C@H]1/C(=C/CO)O[C@@H]2CC(=O)N21 [Clavulanic] as the compound, how does the Bliss interaction score (B. subtilis 168 [1]) read?
Answer: -0.0417

Question: And the Bliss interaction score (S. pneumoniae D39V [6])?
Answer: -0.0363

Question: `CC(=O)Oc1ccccc1C(=O)O` [Acetylsalicylicacid] + CC(C)Cc1ccc(C(C)C(=O)O)cc1 [Ibuprofen] was tested. Which Bliss interaction score (S. aureus DSM 20231) did it give?
Answer: -0.275

Question: `COCCOC(=O)C1=C(C)NC(C)=C(C(=O)OC/C=C/c2ccccc2)C1c1cccc([N+](=O)[O-])c1` (stereo unspecified) [Cilnidipine] + CC[C@H]1OC(=O)[C@H](C)[C@@H](O[C@H]2C[C@@](C)(OC)[C@@H](O)[C@H](C)O2)[C@H](C)[C@@H](O[C@@H]2O[C@H](C)C[C@H](N(C)C)[C@H]2O)[C@](C)(OC)C[C@@H](C)C(=O)[C@H](C)[C@@H](O)[C@]1(C)O [Clarithromycin] was tested. Which Bliss interaction score (S. aureus DSM 20231) did it give?
Answer: -0.196

Question: For `CC(=O)Oc1cccc2c1C(=O)c1c(OC(C)=O)cc(C(=O)O)cc1C2=O` [Diacerein] + CN(C)C(=O)C(CCN1CCC(O)(c2ccc(Cl)cc2)CC1)(c1ccccc1)c1ccccc1 [Loperamide], which Bliss interaction score (S. aureus DSM 20231) is on record?
Answer: -0.474

Question: With `C[C@H]1c2cccc(O)c2C(=O)C2=C(O)[C@]3(O)C(=O)C(C(N)=O)=C(O)[C@@H](N(C)C)[C@@H]3[C@@H](O)[C@@H]21` [Doxycycline] + CCCSc1nc(N[C@@H]2C[C@H]2c2ccc(F)c(F)c2)c2nnn([C@@H]3C[C@H](OCCO)[C@@H](O)[C@H]3O)c2n1 [Ticagrelor] as the compound, how does the Bliss interaction score (S. aureus DSM 20231) read?
Answer: -0.272
